Where “and” joins values, the source holds several entries; their conditions need not be identical. Identical values can stand only once. Marks after values point to notes of the source that are not given here.
How the values were obtained:
[1] = Pharmacokinetic study, plasma; assay type: in vivo, SD rats; settings: rat blood/plasma, 4 mg/kg i.p.
Description: (§1) The SD rats (approximately 200 g) were randomly assigned to eight groups, with each group comprising three rats. All experimental procedures were carried out in accordance with the ethical guidelines outlined by the Ethics Committee of the Beijing Institute of Technology. The administration medium consisted of a combination of 5% dimethyl sulfoxide (DMSO) and 95% soybean oil. The drug was administered intraperitoneally at a dose of 4 mg/kg. Prior to the experiment, the experimental animals were subjected to a 12 h fasting period with free access to water. Following drug administration, blood samples were collected from the rat’s orbital vein at predetermined time points. The collected blood was then placed in sodium heparin anticoagulation tubes. The rats were euthanized, and their brain tissues were carefully extracted and loaded into 5 mL EP tubes. The collection time points for plasma and brain tissue samples were as follows: 0 min, 15 min, 30 min, 1 h, 2 h, 4 h, 8 h, and 24 h. Within 2 h after collection, the blood samples were centrifuged at 6000 rpm for 10 min at a temperature of 4 °C. The resulting samples were then stored in a −20 °C refrigerator.
(§2) Tissue samples were first weighed and homogenized to ensure consistent testing conditions. The determination of original compound concentrations in plasma and tissue homogenates was performed using LC-MS/MS. Specifically, 50 μL of plasma or tissue samples were mixed with 50 μL of propranolol and 100 μL of acetonitrile for protein precipitation. The resulting mixture was then centrifuged at 12,000 rpm for 5 min, and the supernatant was diluted and analyzed through LC-MS/MS. The liquid chromatography was conducted on a Thermo Scientific Q Exactive HF-X instrument (Thermo Fisher Scientific, Waltham, MA, USA), employing an ACQUITY UPLC BEH C18 Column with dimensions of 130 Å, 1.7 µm, 2.1 mm × 100 mm. Additionally, a pre-column equipped with an ACQUITY UPLC BEH C18 VanGuard Pre-Column (130 Å, 1.7 µm, 2.1 mm × 5 mm) was utilized. The liquid phase method employed gradient elution with mobile phases consisting of acetonitrile and a 0.1% formic acid aqueous solution. Mass spectrometry was conducted in positive ion mode. The quantification of drug concentration in plasma samples was performed using the internal standard method, and the obtained pharmacokinetic parameters were calculated using Phoenix WinNonlin 7.0 software.

[2] = Pharmacokinetic study, brain tissue distribution; assay type: in vivo, SD rats; settings: 4 mg/kg i.p.
Description: as §1
as §2, with “Additionally, a pre-column equipped with an ACQUITY UPLC BEH C18 VanGuard Pre-Column (130 Å, 1.7 µm, 2.1 mm × 5 mm) was utilized. The liquid phase method employed gradient elution with mobile phases consisting of acetonitrile and a 0.1% formic acid aqueous solution. Mass spectrometry was conducted in positive ion mode.” left out

[3] = system: newborn cells in the subgranular zone; test: BrdU+ newborn cells, rats sacrificed 28 days after BrdU; assay type: in vivo, rat; settings: nine-week-old rats (n = 2), i.p. 4.0 mg/kg/day for 28 days, BrdU pulse, Figure 7A
Description: The study employed a rat model, wherein nine-week-old rats were administered intraperitoneally with the compound at a dose of 4.0 mg/kg/day for 28 days and then treated with a pulse of BrdU. Instead of sacrificing the rats 24 h after the BrdU injections, the rats were sacrificed after another 28 days. The brains were then isolated and cryosectioned. Eight randomly selected slices were subjected to immunohistochemical staining. This staining enabled the co-localization of the BrdU-incorporated cells with the NeuN marker, enabling the definition of the compounds that could promote the differentiation of newborn neural progenitor cells into mature functional neurons. The compounds were dissolved in reagent-grade soybean oil containing 10% ethanol to reach a drug concentration of 2.8 mg/mL. The rats in the experimental group received intraperitoneal injections of the compounds at a dose of 4.0 mg/kg/d for 28 consecutive days. As a control, the vehicle group was administered injections of reagent-grade soybean oil containing 10% ethanol. BrdU (Sigma-Aldrich, St. louis, MA, USA) solution, prepared in physiological saline at a concentration of 10 mg/mL, was administered to all rats on day 29. Each rat received two injections of BrdU at a dosage of 50 mg/kg, with a 2 h interval between injections. The rats were euthanized 24 h (or 28 days) after the final BrdU injection. Two or four rats per group were anesthetized using pentobarbital sodium (70 mg/kg) and subsequently perfused with physiological saline. The brain tissue was carefully dissected and fixed in 4% paraformaldehyde at 4 °C for one week. Next, the brain tissue underwent dehydration using a phosphate-buffered saline (PBS) solution containing 20% to 30% sucrose. Finally, the brain tissue was cryosectioned into slices with a thickness of 30 μm, and eight slices were randomly selected for further analysis. The assessment of new cell proliferation was conducted using BrdU staining. To eliminate endogenous peroxides, sections were exposed to 1% H2O2 for 30 min at RT. Cellular denaturation was achieved by treating the sections with 2 M HCl at 37 °C for 1 h, followed by rinsing in 0.1 M borate buffer (pH 8.5). Tissue sections were subjected to blocking in a solution consisting of 5% goat serum and 0.5% Triton X-100 in PBS at RT for 1–2 h. The specimens were then incubated overnight at 4 °C with a mouse primary antibody specific to BrdU (diluted at 1:500; Millipore, Billerica, MA, USA). Subsequently, the DAB kit was employed for 2 h of incubation at RT. The differentiation process of NPCs was visualized through the utilization of the NeuN/BrdU double staining technique. Tissue sections were subjected to an incubation period in a blocking buffer at RT for 1 to 2 h. The specimens were exposed to a rabbit anti-NeuN antibody (diluted at 1:500, Abcam, Cambridge, MA, UK) and a primary antibody, BrdU (diluted at 1:500), overnight at 4 °C. Afterwards, the sections were treated with anti-mouse 488 and anti-rabbit TRITC secondary antibodies for 2 h at RT. The data were presented as mean ± SEM (standard error of the mean) and visualized using GRAPHPAD PRISM 6 (Graphpad Software, La Jolla, CA, USA). Statistical analysis was conducted utilizing one-way analysis of variance (ANOVA) followed by a post hoc test. Subsequent to the statistical treatment, the observed discrepancies were determined to be statistically significant (p < 0.05).

| AUC0–inf [1] [ng·h/mL] | CL [1] | MRT [1] [h] | T1/2 [1] [h] | Tmax [1] [h] | Vz [1] | AUC0–24h ([1]; n = 3) [ng·h/mL] | Cmax ([1]; n = 3) [ng/mL] | Cmax ([2]; rat brain tissue, n = 3) [ng/g] | AUC0–24h ([2]; rat brain tissue, n = 3, 4 mg/kg) | Ratio = Cmax of Brain/Cmax of Blood ([2]; rat) | Structure (SMILES) | proliferative activity over the longer 28 day period (number of BrdU+ cells) [3] |
| --- | --- | --- | --- | --- | --- | --- | --- | --- | --- | --- | --- | --- |
| 385 ± 82.3 | 10,770 ± 2616 mL/h/kg | 2.46 ± 0.14 | 2.23 | 1.5 | 32,829 ± 4581 mL/kg | 383 ± 84.4 | 132 ± 9 | 168 ± 47 | 608 ng·h/g and 608 ± 220 ng·h/g | 1.28 ^a | CC(C)C(=O)Nc1ccc(/C=C(\C#N)c2ccc3c(c2)OCO3)cc1 [32b, (Z)-N-(4-(2-(benzo[d][1, 3]dioxol-5-yl)-2-cyanovinyl)phenyl)isobutyramide] | – |
| – | – | – | – | – | – | – | – | – | – | – | CC(C)C(=O)Nc1ccc(/C(C#N)=C/c2ccc3c(c2)OCO3)cc1 [29b, (Z)-N-(4-(2-(benzo[d][1, 3]dioxol-5-yl)-1-cyanovinyl)phenyl)isobutyramide] | could promote the proliferation of progenitors |
